In ChEMBL document CHEMBL1649462, “Concentrations of voriconazole in healthy and inflamed lung in rats” (Antimicrob Agents Chemother, 2009):

Key:
Lung [1] = test: Free AUC (0 to 6 hrs) in lung of healthy Wistar rat at 6 mg/kg, iv administered as single dose after 6 hrs by microdialysis technique; type: ADME, organism-based; parameters: dose 6 mg/kg, route intravenous; settings: in vivo
[2] = AUC (0 to 6 hrs) in plasma of healthy Wistar rat at 6 mg/kg, iv administered as single dose after 6 hrs by microdialysis technique; type: ADME, organism-based; parameters: time < 6 hr, dose 6 mg/kg, route intravenous
[3] = Free AUC (0 to 6 hrs) in skeletal muscle of healthy Wistar rat at 6 mg/kg, iv administered as single dose after 6 hrs by microdialysis technique; type: ADME, organism-based, Muscle tissue; parameters: dose 6 mg/kg, route intravenous; settings: in vivo
[4] = Cmax in plasma of healthy Wistar rat at 6 mg/kg, iv administered as single dose after 6 hrs by microdialysis technique; type: ADME, organism-based; parameters: dose 6 mg/kg, route intravenous
Lung [5] = test: fCmax in lung of healthy Wistar rat at 6 mg/kg, iv administered as single dose after 6 hrs by microdialysis technique; type: ADME, organism-based; parameters: dose 6 mg/kg, route intravenous; settings: in vivo
[6] = fCmax in skeletal muscle of healthy Wistar rat at 6 mg/kg, iv administered as single dose after 6 hrs by microdialysis technique; type: ADME, organism-based, Muscle tissue; parameters: dose 6 mg/kg, route intravenous; settings: in vivo
[7] = Tmax in plasma of healthy Wistar rat at 6 mg/kg, iv administered as single dose after 6 hrs by microdialysis technique; type: ADME, organism-based; parameters: dose 6 mg/kg, route intravenous
[8] = fTmax in lung of healthy Wistar rat at 6 mg/kg, iv administered as single dose after 6 hrs by microdialysis technique; type: ADME, organism-based; parameters: dose 6 mg/kg, route intravenous; settings: read-out: fTmax (converted)
[9] = fTmax in skeletal muscle of healthy Wistar rat at 6 mg/kg, iv administered as single dose after 6 hrs by microdialysis technique; type: ADME, organism-based, Muscle tissue; parameters: dose 6 mg/kg, route intravenous; settings: read-out: fTmax (converted)
[10] = Half life in plasma of healthy Wistar rat at 6 mg/kg, iv administered as single dose after 6 hrs by microdialysis technique; type: ADME, organism-based; parameters: dose 6 mg/kg, route intravenous
[11] = AUC (0 to 6 hrs) in plasma of Wistar rat with LPS-induced severe inflammatory response at 6 mg/kg, iv administered as single dose after 6 hrs by microdialysis technique; type: ADME, organism-based; parameters: time < 6 hr, dose 6 mg/kg, route intravenous
[12] = AUC (0 to 6 hrs) in lung of Wistar rat with LPS-induced severe inflammatory response at 6 mg/kg, iv administered as single dose after 6 hrs by microdialysis technique; type: ADME, organism-based; parameters: time < 6 hr, dose 6 mg/kg, route intravenous
[13] = AUC (0 to 6 hrs) in skeletal muscle of Wistar rat with LPS-induced severe inflammatory response at 6 mg/kg, iv administered as single dose after 6 hrs by microdialysis technique; type: ADME, organism-based; parameters: time < 6 hr, dose 6 mg/kg, route intravenous
[14] = Cmax in plasma of Wistar rat with LPS-induced severe inflammatory response at 6 mg/kg, iv administered as single dose after 6 hrs by microdialysis technique; type: ADME, organism-based; parameters: dose 6 mg/kg, route intravenous
Lung [15] = test: fCmax in lung of Wistar rat with LPS-induced severe inflammatory response at 6 mg/kg, iv administered as single dose after 6 hrs by microdialysis technique; type: ADME, organism-based; parameters: dose 6 mg/kg, route intravenous; settings: in vivo
[16] = fCmax in skeletal muscle of Wistar rat with LPS-induced severe inflammatory response at 6 mg/kg, iv administered as single dose after 6 hrs by microdialysis technique; type: ADME, organism-based, Muscle tissue; parameters: dose 6 mg/kg, route intravenous; settings: in vivo
[17] = Tmax in plasma of Wistar rat with LPS-induced severe inflammatory response at 6 mg/kg, iv administered as single dose after 6 hrs by microdialysis technique; type: ADME, organism-based; parameters: dose 6 mg/kg, route intravenous
[18] = fTmax in lung of Wistar rat with LPS-induced severe inflammatory response at 6 mg/kg, iv administered as single dose after 6 hrs by microdialysis technique; type: ADME, organism-based; parameters: dose 6 mg/kg, route intravenous; settings: read-out: fTmax (converted)
[19] = fTmax in skeletal muscle of Wistar rat with LPS-induced severe inflammatory response at 6 mg/kg, iv administered as single dose after 6 hrs by microdialysis technique; type: ADME, organism-based, Muscle tissue; parameters: dose 6 mg/kg, route intravenous; settings: read-out: fTmax (converted)
[20] = Half life in plasma of Wistar rat with LPS-induced severe inflammatory response at 6 mg/kg, iv administered as single dose after 6 hrs by microdialysis technique; type: ADME, organism-based; parameters: dose 6 mg/kg, route intravenous
[21] = Protein binding in female Sprague-Dawley rat plasma at 30 mg/kg, po for 6 days; type: ADME, organism-based; parameters: dose 30 mg/kg, route oral; settings: read-out: PPB (converted)
[22] = Protein binding in male Sprague-Dawley rat plasma at 30 mg/kg, po for 6 days; type: ADME, organism-based; parameters: dose 30 mg/kg, route oral; settings: read-out: PPB (converted)

With `C[C@@H](c1ncncc1F)[C@](O)(Cn1cncn1)c1ccc(F)cc1F` [VORICONAZOLE] the fAUC (Lung [1]) was 608 mg·min/L, the AUC(0-t) at 6 h [2] was 19600 ng·h/mL and the fAUC [3] was 530 mg·min/L. The Cmax [4] was 5400 ng/mL, the fCmax (Lung [5]) was 2.6 mg/L and the fCmax [6] was 2.2 mg/L. It also gave a Tmax [7] of 49 min, a Tmax [8] of 2.28 h and a Tmax [9] of 3.25 h. The half-life [10] was 610 min, the AUC(0-t) at 6 h [11] was 22700 ng·h/mL and the AUC(0-t) at 6 h [12] was 8170 ng·h/mL. It also gave an AUC(0-t) at 6 h [13] of 8450 ng·h/mL, a Cmax [14] of 6300 ng/mL and a fCmax (Lung [15]) of 2.3 mg/L. For the same molecule, the fCmax [16] was 2.2 mg/L, the Tmax [17] was 15 min and the Tmax [18] was 1.87 h. It also gave a Tmax [19] of 2.17 h, a half-life [20] of 677 min and a fraction unbound at 144 h [21] of 0.34. The fraction unbound at 144 h [22] was 0.34.
